Measured values as given in patent US20060167057A1, “Compounds for the treatment of CNS and amyloid associated diseases” (priority 2004, published 2006).

Molecular target: T1, L1 transport system (large neutral amino acid carrier, L1-system carrier) (Rattus norvegicus, UniProt Q63016)
T1 construct: functionality of their endogenous transporters such as the L1-system carrier; endogenous in cells; host or cells: rat primary cerebrovascular (brain microcapillary) endothelial cells, RBEC
Test: Competitive binding assay to the brain L1 transport system (L-[U-14C]phenylalanine on rat primary cerebrovascular endothelial cells)
Description: Compound samples in PBS (without Ca^+2, Mg^+2)-glucose 30 mM-HEPES 10 mM—DMSO 1% as prepared in Example 1 were thawed and left for at least 30 minutes at 20-23° C. before preparation of the following sub-dilutions for the competitive binding assay: • 200 μL of the stock solution were added to 800 μL PBS (without Ca^+2, Mg^+2)-Glucose-HEPES-1% DMSO (PBSD-1) [diluted 1:5 for a final 1:5 dilution] • 100 μL (1/5 dilution above) were added to 900 μL PBSD-1 [diluted 1:10 for a final 1:50 dilution] • 100 μL (1/50 dilution above) were added to 900 μL PBSD-1 [diluted 1:10 for a final 1:500 dilution]
These sub-dilutions were used immediately or stored overnight at 4° C. before the competitive binding assay. A volume of 45 μL of each of the compound dilutions (1:5, 1:50, 1:500) in PBSD-1 was added to the appropriate wells in the dilution plate.
Brains from sixty 24-day-old rats were dissected individually on a sterile lint moistened with ice cold Hanks' balanced salt solution (Gibco BRL, Grand Island, N.Y.) containing 10 mM HEPES (medium 1) supplemented with 0.1% BSA. Cerebellum, striatum, optic nerves, and brain stem (white matter) were removed. After a mid-sagittal section of the brain, the meninges and leptomeningeal debris were removed by rolling a sterile dry cotton swab on the cortices. (Ichikawa N, Naora K, Hirano H, Hashimoto M, Masumura S, and Iwamoto K (1996). Isolation and primary culture of rat cerebral microvascular endothelial cells for studying drug transport in vitro. J Pharmacol Toxicol Meth 36: 45-52.). Clean cortices were minced in pieces of ≈2 mm^3 in 15 mL of ice-cold medium 1-0.1% BSA. The preparation was divided into 4 sterile pre-weighed tubes and centrifuged at 330× g at 20-25° C. for 5 min. Tubes were weighed and pre-warmed (37° C.) and medium 1 with 0.5% BSA containing 0.3% collagenase and 10 μg/mL DNAse 1 (Roche, Laval, Quebec, Canada) were added to each tube (1 mL/g of tissue).
The brain-collagenase mixture was vigorously agitated in a water bath at 37° C. for 90 min. Fifteen min before the end of the digestion, the tissue was homogenized using a 10-mL pipette until a creamy mixture was obtained (≈20 aspirations). Cells were washed by adding medium 1 with 0.1% BSA to the homogenate (26 mL/tube) and centrifuged at 100× g at 20-25° C. for 7 min. This washing step was repeated 3 more times, once for 5 min and twice for 3 min. Each pellet was re-suspended in 25 mL of a 15% dextran solution prepared in medium 1 with 0.1% BSA and centrifuged at 3200× g at 4° C. for 25 min to isolate vessels from neural tissue and dextran layers. Vascular pellets were re-suspended in 5 mL Ca^++—Mg^++-free-medium 1 with 0.1% BSA (medium 2) at 20-25° C. and transferred in a 50-mL tube. Remaining vessels were collected by rinsing the tubes and pooling the rinsing suspension. (Rupnick M A, Carey A, and Williams S K (1988). Phenotypic diversity in cultured cerebral microvascular endothelial cells in vitro. Cell Develop Biol 24: 435-444.)
The vascular preparation was filtered and rinsed (20 mL of medium 2) through a sterile 355-μm mesh. The 355-μm filtrate was sequentially filtered twice (20 mL of medium 2) through sterile 112-μm meshes and rinsed (Stanimirovic D B, Wong J, Ball R, and Durkin J P (1995). Free radical-induced endothelial membrane dysfunction at the site of the blood-brain barrier: relationship between lipid peroxidation, Na,K-ATPase activity, and ^51Cr release. Neurochem Res 20:1417-1427.) and the latter filtrate was filtered and rinsed through a sterile 20-μm mesh. A final step of filtration and rinse was repeated through a double layer of 20-μm meshes. All 20-μm meshes, which retained the microcapillaries, were then transferred into a 50-mL tube containing 20 mL of a 0.1% collagenase/dispase (Roche) solution in medium 2 supplemented with 10 μg/mL DNAse 1 and 0.147 μg/mL tosyl-lysine-chloromethyl-ketone (Sigma Chemical Co., Oakville, Ontario, Canada) (medium 3).

T1 sequence (Q63016 whole entry): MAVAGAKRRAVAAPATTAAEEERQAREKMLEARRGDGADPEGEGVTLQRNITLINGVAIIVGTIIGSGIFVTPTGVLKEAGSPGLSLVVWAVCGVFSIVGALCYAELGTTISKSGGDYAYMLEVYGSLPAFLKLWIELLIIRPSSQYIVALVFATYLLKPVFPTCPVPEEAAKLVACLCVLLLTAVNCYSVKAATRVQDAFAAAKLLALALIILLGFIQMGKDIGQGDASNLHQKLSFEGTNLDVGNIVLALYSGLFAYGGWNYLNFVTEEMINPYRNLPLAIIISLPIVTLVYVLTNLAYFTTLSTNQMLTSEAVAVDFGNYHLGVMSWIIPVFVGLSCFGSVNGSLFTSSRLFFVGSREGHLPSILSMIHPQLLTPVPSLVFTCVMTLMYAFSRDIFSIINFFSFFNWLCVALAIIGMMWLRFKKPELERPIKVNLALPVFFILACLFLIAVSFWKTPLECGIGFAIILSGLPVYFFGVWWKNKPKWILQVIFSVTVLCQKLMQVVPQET
T1 sequence (Q794F9 whole entry partner): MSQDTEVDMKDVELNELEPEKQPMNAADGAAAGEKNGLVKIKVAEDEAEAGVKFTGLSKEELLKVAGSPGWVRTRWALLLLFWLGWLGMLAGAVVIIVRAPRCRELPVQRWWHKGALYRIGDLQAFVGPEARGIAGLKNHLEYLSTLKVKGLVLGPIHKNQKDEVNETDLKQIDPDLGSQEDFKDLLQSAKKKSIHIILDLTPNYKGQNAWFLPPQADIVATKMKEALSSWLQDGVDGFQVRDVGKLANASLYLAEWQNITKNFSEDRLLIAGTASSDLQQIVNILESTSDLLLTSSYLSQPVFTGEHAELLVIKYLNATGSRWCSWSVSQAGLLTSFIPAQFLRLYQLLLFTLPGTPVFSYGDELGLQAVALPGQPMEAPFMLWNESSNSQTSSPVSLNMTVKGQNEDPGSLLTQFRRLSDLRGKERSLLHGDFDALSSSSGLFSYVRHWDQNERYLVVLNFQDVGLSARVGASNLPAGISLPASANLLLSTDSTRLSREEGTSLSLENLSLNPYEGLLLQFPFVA

| Structure (SMILES) | Comparison with the Binding of Phenylalanine (10^−4 M) | Comparison with the Binding of Phenylalanine (10^−5 M) | Comparison with the Binding of Phenylalanine (10^−6 M) | Status of Binding (compounds of Example 4, 10^−6, 10^−5 and 10^−4, Δ versus phenylalanine) |
| --- | --- | --- | --- | --- |
| NC(=O)C(N)Cc1cccc(CSc2nnnn2-c2ccccc2)c1 (stereo not shown) [Compound 9] | 0 (X < 0 Rank 0) | 1 (0 < X < 10 Rank 1) | 0 (X < 0 Rank 0) |  |
| NC(Cc1cccc(CSc2nnnn2CC(=O)O)n1)C(=O)O (stereo not shown) [Compound 123] | 0 (X < 0 Rank 0) | 2 (10 < X < 20 Rank 2) | 2 (10 < X < 20 Rank 2) |  |
| COc1ccc2[nH]c(Sc3cccc(-c4cccc(CC(N)C(=O)O)c4)c3)nc2c1 (stereo not shown) [Compound 76] | 0 (X < 0 Rank 0) | 0 (X < 0 Rank 0) | 1 (0 < X < 10 Rank 1) |  |
| NC(=O)C(N)Cc1cccc(CSc2nnc(-c3ccncc3)o2)c1 (stereo not shown) [Compound 11] | 0 (X < 0 Rank 0) | 1 (0 < X < 10 Rank 1) | 2 (10 < X < 20 Rank 2) |  |
| CC(=O)c1ccc(N2CCN(Cc3cccc(CC(N)C(=O)O)n3)CC2)cc1 (stereo not shown) [Compound 127] | 1 (0 < X < 10 Rank 1) | 2 (10 < X < 20 Rank 2) | 0 (X < 0 Rank 0) |  |
| NC(Cc1cccc(CSc2cncc3c(C(F)(F)F)cccc23)n1)C(=O)O (stereo not shown) [Compound 24] | 0 (X < 0 Rank 0) | 0 (X < 0 Rank 0) | 3 (X > 20 Rank 3) |  |
| CN(C)CCn1nnnc1Sc1cccc(-c2cccc(CC(N)C(=O)O)c2)c1 (stereo not shown) [Compound 103] | 2 (10 < X < 20 Rank 2) | 2 (10 < X < 20 Rank 2) | 2 (10 < X < 20 Rank 2) |  |
| NC(Cc1cccc(-c2cccc(N3CCc4ccccc4C3)c2)c1)C(=O)O (stereo not shown) [Compound 115] | 0 (X < 0 Rank 0) | 0 (X < 0 Rank 0) | 1 (0 < X < 10 Rank 1) |  |
| NC(=O)C(N)Cc1cccc(CSc2nccc(C(F)(F)F)n2)n1 (stereo not shown) [Compound 22] | 0 (X < 0 Rank 0) | 1 (0 < X < 10 Rank 1) | 0 (X < 0 Rank 0) |  |
| N#CC1(c2ccccc2)CCN(Cc2cccc(CC(N)C(=O)O)n2)CC1 (stereo not shown) [Compound 117] | 0 (X < 0 Rank 0) | 0 (X < 0 Rank 0) | 1 (0 < X < 10 Rank 1) |  |
| NC(Cc1cccc(CN2CCN(c3cccc(Cl)c3)CC2)n1)C(=O)O (stereo not shown) [Compound 86] | 1 (0 < X < 10 Rank 1) | 2 (10 < X < 20 Rank 2) | 1 (0 < X < 10 Rank 1) |  |
| N[C@@H](Cc1cccc(CSc2nccc(C(F)(F)F)n2)n1)C(=O)O [drawing 476] |  |  |  | 1 (1: −10 > Δ > −50%, lower binding affinity than phenylalanine) |
| NC(Cc1cccc(-c2cccc(N3CCN(c4ccccn4)CC3)c2)c1)C(=O)O (stereo not shown) [Compound 113] | 0 (X < 0 Rank 0) | 0 (X < 0 Rank 0) | 2 (10 < X < 20 Rank 2) |  |
| NC(Cc1cccc(CN2CC=CCC2)n1)C(=O)O (stereo not shown) [Compound 160] | 0 (X < 0 Rank 0) | 0 (X < 0 Rank 0) | 1 (0 < X < 10 Rank 1) |  |
| NC(Cc1ccc(-c2ccc(CSc3nc(-c4ccccc4)c(-c4ccccc4)[nH]3)cc2)cc1)C(=O)O (stereo not shown) [Compound 149] | 3 (X > 20 Rank 3) | 3 (X > 20 Rank 3) | 2 (10 < X < 20 Rank 2) |  |
| NC(=O)C(N)Cc1cccc(CSc2ncnc3[nH]ncc23)n1 (stereo not shown) [Compound 34] | 0 (X < 0 Rank 0) | 0 (X < 0 Rank 0) | 1 (0 < X < 10 Rank 1) |  |
